ChEMBL document CHEMBL1201862, “PubChem BioAssay data set” (2004)
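The compound was tested at five concentrations on cells cultured in 96-well plates, with a 48-hour exposure period. Abbreviation: GI50, concentration required for 50% inhibition of growth.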 Activity calls are given as the source filed them. Cut-off read from the data, not from the text of the source: active = GI50 up to about 1.1 µM and inactive = higher.

Assays:
Experiment in all cases: NCI tumour cell line growth inhibition, 48 h
[1] = system: OVCAR-4
[2] = system: NCI-H23
[3] = system: SF-268
[4] = system: SK-MEL-5
[5] = system: 786-0
[6] = system: RXF 393
[7] = system: CAKI-1
[8] = system: HL-60
[9] = system: HOP-62
[10] = system: MDA-MB-435
[11] = system: ACHN
[12] = system: MCF7
[13] = system: UACC-257
[14] = system: PC-3
[15] = system: SK-MEL-28
[16] = system: HOP-92
[17] = system: OVCAR-3
[18] = system: IGROV-1
[19] = system: RPMI-8226

Structure (SMILES)	GI50 [1]	GI50 [2]	GI50 [3]	GI50 [4]	GI50 [5]	GI50 [6]	GI50 [7]	GI50 [8]	GI50 [9]	GI50 [10]	GI50 [11]	GI50 [12]	GI50 [13]	GI50 [14]	GI50 [15]	GI50 [16]	GI50 [17]	GI50 [18]	GI50 [19]
CC(C)C(C/C=C1\CC(CO)(COC(=O)CC(C(C)C)C(C)C)OC1=O)C(C)C (stereo not given)	17.6 µM (inactive)	15 µM (inactive)	14.2 µM (inactive)	11 µM (inactive)	7.03 µM (inactive)	14.5 µM (inactive)	6.87 µM (inactive)	2.74 µM (inactive)	5.08 µM (inactive)	7.06 µM (inactive)	10.3 µM (inactive)	15.7 µM (inactive)	15.6 µM (inactive)	11.7 µM (inactive)	14.9 µM (inactive)	0.902 µM (active)	15.6 µM (inactive)	14.7 µM (inactive)	–
CN(C)CCn1c(CO)nc2c1c(=O)n(C)c(=O)n2C	> 100 µM (inactive)	> 100 µM (inactive)	> 100 µM (inactive)	> 100 µM (inactive)	> 100 µM (inactive)	> 100 µM (inactive)	> 100 µM (inactive)	> 100 µM (inactive)	> 100 µM (inactive)	> 100 µM (inactive)	> 100 µM (inactive)	> 100 µM (inactive)	> 100 µM (inactive)	> 100 µM (inactive)	> 100 µM (inactive)	–	> 100 µM (inactive)	> 100 µM (inactive)	> 100 µM (inactive)
O=C(Nc1ccccc1C(=O)NCc1ccccc1)/C(=C/c1ccccc1O)NC(=O)c1ccccc1	–	> 100 µM (inactive)	54.1 µM (inactive)	> 100 µM (inactive)	66.4 µM (inactive)	48.9 µM (inactive)	> 100 µM (inactive)	55.5 µM (inactive)	27.1 µM (inactive)	50.7 µM (inactive)	61 µM (inactive)	5.32 µM (inactive)	> 100 µM (inactive)	> 100 µM (inactive)	> 100 µM (inactive)	75.3 µM (inactive)	> 100 µM (inactive)	73.1 µM (inactive)	> 100 µM (inactive)
O=C(c1ccccc1)c1ccc(N2C(=O)/C(=C/Cc3ccco3)N=C2c2ccccc2)c(N2C(=O)/C(=C/Cc3ccco3)N=C2c2ccccc2)c1	39.9 µM (inactive)	–	32.1 µM (inactive)	26.1 µM (inactive)	45.7 µM (inactive)	–	67.5 µM (inactive)	15.3 µM (inactive)	40 µM (inactive)	29.2 µM (inactive)	33 µM (inactive)	52 µM (inactive)	47.1 µM (inactive)	39.8 µM (inactive)	> 100 µM (inactive)	97.1 µM (inactive)	21.6 µM (inactive)	39.2 µM (inactive)	27.8 µM (inactive)
CC[N+]1(C)CCC(O)(/C=C/c2ccc(Cl)c(Cl)c2)C(C(=O)/C=C/c2ccc(Cl)c(Cl)c2)C1 (stereo not given)	–	2.57 µM (inactive)	2.67 µM (inactive)	2.68 µM (inactive)	1.81 µM (inactive)	2.04 µM (inactive)	4.07 µM (inactive)	1.9 µM (inactive)	2.49 µM (inactive)	2.12 µM (inactive)	1.98 µM (inactive)	2.36 µM (inactive)	2.38 µM (inactive)	2.18 µM (inactive)	2.15 µM (inactive)	1.7 µM (inactive)	3.09 µM (inactive)	2.96 µM (inactive)	2.17 µM (inactive)
CCC(C)C1=C(OC(C)=O)[N+]2([O-])Oc3ccc(-c4c(OC(C)=O)c(OC(C)=O)c(-c5ccc(OC(C)=O)cc5)c(OC(C)=O)c4OC(C)=O)cc3OC2(C(C)CC)C(=O)N1OC(C)=O (stereo not given)	16.5 µM (inactive)	20.6 µM (inactive)	12.4 µM (inactive)	11 µM (inactive)	10.5 µM (inactive)	29.6 µM (inactive)	34 µM (inactive)	7.71 µM (inactive)	–	17.5 µM (inactive)	19.6 µM (inactive)	19.6 µM (inactive)	30.5 µM (inactive)	22.5 µM (inactive)	19.5 µM (inactive)	–	11.4 µM (inactive)	11.5 µM (inactive)	10.3 µM (inactive)
COc1ccc(C(=O)Sc2c(-c3ccccc3)c(=O)n(-c3ccccc3)c(=S)n2-c2ccccc2)cc1	44.4 µM (inactive)	> 100 µM (inactive)	67.5 µM (inactive)	–	33.7 µM (inactive)	24.1 µM (inactive)	> 100 µM (inactive)	60.5 µM (inactive)	34.5 µM (inactive)	> 100 µM (inactive)	40.5 µM (inactive)	> 100 µM (inactive)	> 100 µM (inactive)	5.16 µM (inactive)	81.5 µM (inactive)	24.1 µM (inactive)	30.5 µM (inactive)	10.1 µM (inactive)	–
O=C1CSC2=NC3=C(CSC/C3=C\c3ccc(Cl)cc3)C(c3ccc(Cl)cc3)N12 (stereo not given)	4.46 µM (inactive)	19.9 µM (inactive)	41.2 µM (inactive)	14.4 µM (inactive)	> 10 µM (inactive)	–	37.2 µM (inactive)	22.2 µM (inactive)	–	25.1 µM (inactive)	16.9 µM (inactive)	19.3 µM (inactive)	28.2 µM (inactive)	5.22 µM (inactive)	27 µM (inactive)	10.3 µM (inactive)	15.5 µM (inactive)	41.9 µM (inactive)	17.5 µM (inactive)
Cc1ccc(S(=O)(=O)N(CCN2C(=O)c3ccccc3C2=O)c2cc3c4c(c2)Oc2cc(N(CCN5C(=O)c6ccccc6C5=O)S(=O)(=O)c5ccc(C)cc5)cc5c2C4(C)c2c(cc(N(CCN4C(=O)c6ccccc6C4=O)S(=O)(=O)c4ccc(C)cc4)cc2O5)O3)cc1	> 100 µM (inactive)	–	> 100 µM (inactive)	> 100 µM (inactive)	> 100 µM (inactive)	> 100 µM (inactive)	> 100 µM (inactive)	> 100 µM (inactive)	> 100 µM (inactive)	> 100 µM (inactive)	> 100 µM (inactive)	> 100 µM (inactive)	> 100 µM (inactive)	> 100 µM (inactive)	> 100 µM (inactive)	–	> 100 µM (inactive)	57.3 µM (inactive)	> 100 µM (inactive)
CCOC(=O)c1cc(Br)c(-c2onc(C)c2Br)n1C	38.5 µM (inactive)	47.8 µM (inactive)	75 µM (inactive)	16.9 µM (inactive)	25.9 µM (inactive)	10.2 µM (inactive)	12.8 µM (inactive)	11.8 µM (inactive)	35.6 µM (inactive)	34.8 µM (inactive)	41.6 µM (inactive)	23.6 µM (inactive)	44.7 µM (inactive)	35.3 µM (inactive)	> 100 µM (inactive)	–	31.6 µM (inactive)	59.8 µM (inactive)	55 µM (inactive)
COC(=O)c1c(C)c2c(c(C)c1C(=O)OC)-c1c(C)ccc3ccc(C)c-2c13	> 68.5 µM (inactive)	–	54 µM (inactive)	13.1 µM (inactive)	19.1 µM (inactive)	15.6 µM (inactive)	> 100 µM (inactive)	5.08 µM (inactive)	> 100 µM (inactive)	> 83 µM (inactive)	> 100 µM (inactive)	> 78.3 µM (inactive)	> 54.5 µM (inactive)	28.7 µM (inactive)	68.2 µM (inactive)	–	> 85.9 µM (inactive)	54 µM (inactive)	7.28 µM (inactive)
Nc1cc2ncnn2c(SCC(=O)N/N=C/C(Br)=C\c2ccccc2)n1	–	10.8 µM (inactive)	–	13.4 µM (inactive)	15.1 µM (inactive)	15.8 µM (inactive)	17.9 µM (inactive)	11.9 µM (inactive)	33.6 µM (inactive)	15 µM (inactive)	16.9 µM (inactive)	14.7 µM (inactive)	9.62 µM (inactive)	12.6 µM (inactive)	16 µM (inactive)	–	18.5 µM (inactive)	11.5 µM (inactive)	10.6 µM (inactive)
COC(=O)C12C3C4(C(=O)OC)C1C1(C(=O)OC)C2C3(C(=O)OC)C41C(=O)N(C(C)C)C(C)C (stereo not given)	> 100 µM (inactive)	> 100 µM (inactive)	> 100 µM (inactive)	> 100 µM (inactive)	> 100 µM (inactive)	> 100 µM (inactive)	> 100 µM (inactive)	> 100 µM (inactive)	> 100 µM (inactive)	> 100 µM (inactive)	> 100 µM (inactive)	> 100 µM (inactive)	> 100 µM (inactive)	> 100 µM (inactive)	> 100 µM (inactive)	> 100 µM (inactive)	> 100 µM (inactive)	> 100 µM (inactive)	–
O=c1c(-c2ccc3c(c2)OCO3)coc2c3c(ccc12)OCO3	24.8 µM (inactive)	19.2 µM (inactive)	19.1 µM (inactive)	> 100 µM (inactive)	19.4 µM (inactive)	–	63.7 µM (inactive)	> 100 µM (inactive)	20.1 µM (inactive)	> 100 µM (inactive)	18.5 µM (inactive)	15.9 µM (inactive)	53.1 µM (inactive)	75.9 µM (inactive)	24.3 µM (inactive)	18 µM (inactive)	28.5 µM (inactive)	20.8 µM (inactive)	> 100 µM (inactive)
C[C@@H]1CC(=O)[C@@]2(C)[C@](O)(CCC3O[C@]32C)[C@@]12CC(c1ccoc1)OC2=O (stereo not given in full)	> 100 µM (inactive)	> 100 µM (inactive)	–	44.3 µM (inactive)	75.7 µM (inactive)	31.8 µM (inactive)	91 µM (inactive)	24.9 µM (inactive)	–	42 µM (inactive)	70.6 µM (inactive)	84.5 µM (inactive)	> 100 µM (inactive)	> 100 µM (inactive)	> 100 µM (inactive)	–	> 100 µM (inactive)	> 100 µM (inactive)	33.3 µM (inactive)
